Results reported in patent US8835647B2, “2-((R)-2-methylpyrrolidin-2-yl)-1H-benzimidazole-4-carboxamide crystalline form 1” (AbbVie Inc., priority 2007, dated 2014).

Assays:
[1] = at 25° C.
tumor = tumor bearing animals; cited from earlier work

Compound	thermodynamic stability of crystalline form [1]	tumor growth (tumor)
C[C@]1(c2nc3c(C(N)=O)cccc3[nH]2)CCCN1 [ABT-888 Crystalline Form 1, 2-((R)-2-Methylpyrrolidin-2-yl)-1H-benzimidazole-4-carboxamide Crystalline Form 1]	most thermodynamically stable crystalline form of ABT-888	
C[C@]1(c2nc3c(C(N)=O)cccc3[nH]2)CCCN1 [ABT-888, 2-((R)-2-methylpyrrolidin-2-yl)-1H-benzimidazole-4-carboxamide]		limit tumor growth
